We go through 17 molecules from patent publication US4370336A, “3,5-Disubstituted-1H-1,2,4-triazole derivatives as antifertility agents” (priority 1981, dated 1983).

Where two headings read alike, the source gives them in different places. Where only a bound is given, the exact number is not on record here.

For orientation: ED50 means the dose at which the effect has come halfway, by size or by number of responders.

Assay [1] has as its system female Syrian golden hamsters. Put plainly: post-coital-post-implantation antifertility activity in hamsters, subcutaneous. It is filed as in vivo, Syrian golden hamster. The note with it: for ED50: Mesocricetus auratus, sc. On the procedure: (§1) Representative experiments for assessing antifertility activity were carried out with female Syrian golden hamsters weighing 100 to 130 g. The animals were mated and the presence of sperm in the vagina was taken as evidence of mating. […] Pregnancy was later confirmed at the time of autopsy by presence of fetuses or implantation sites in the uterus. Even if an animal aborts the fetus, implantation scars still remain as evidence that the animal has been pregnant.
(§2) The animals were autopsied on day 14 of pregnancy and the uteri were examined for evidence of pregnancy (implantation sites, fetal resorptions or live fetuses), hemorrage, and evidence of abnormalities of the uterus, placenta or fetuses.

In assay [2] the test system is female Sprague-Dawley rats. Put plainly: anti-reproductive activity in rats, subcutaneous. In kind it is in vivo, Sprague-Dawley rat. The note with it: Rattus norvegicus, sc; for responders at 20 mg/kg: 384 h, 20 mg/kg s.c. for five days from day 6 of pregnancy, sesame oil, autopsy day 16, read-out: reduction of live fetuses (share of treated rats). The method, then:
as §1, §2
The same criteria and experimental conditions as above were also applied when the anti-reproductive activity of the compounds of the invention was investigated in other animal species such as, for instance, rats, dogs, monkeys and baboons. In representative experiments, female Sprague-Dawley rats weighing from 200 to 300 g. were treated subcutaneously with a dosage of 20 mg/kg of the compound to be tested, dissolved in sesame oil, for five consecutive days starting from day 6 of pregnancy.

Assay [3] deals with hamsters. Description: antifertility activity in hamsters by oral route. In kind it is in vivo, hamster. The following applies: Mesocricetus auratus; for inhibition in vivo at 10 mg/kg: oral dosage of 10 mg/kg, read-out: reduction of live fetuses; for ED50: po, absence of live fetuses in 50% of the animals. The method, then: as §1, §2
The experiments for assessing this property were carried out on hamsters following the same procedure as above, with the obvious exception that the compounds were administered orally instead of subcutaneously.

The mark [4] stands for this setting: hamsters, 100% activity (absence of live fetuses) in 50% of the animals, read-out: ED50.

On to `c1ccc(-c2n[nH]c(-c3ccccc3)n2)cc1` [3,5-diphenyl-1H-1,2,4-triazole, reference compound], for which the ED50 in assay [1] stood at 6 mg/kg. For the same molecule, the “antifertility activity relative to the compounds of the invention” value in assay [1] (hamsters, 10 mg/kg s.c. daily for 5 days (days 4-8 of pregnancy), comparison) is listed as “much less active”.
In the case of `COc1cccc(-c2n[nH]c(-c3ccccc3C)n2)c1` [Example 1, 3-(m-Methoxyphenyl)-5-(o-tolyl)-1H-1,2,4-triazole], in assay [2], the responders at 20 mg/kg was at least 60%. The ED50 in assay [2] (absence of live fetuses in 50% of the animals) worked out at 1 mg/kg; in assay [1] (setting [4]), 0.08 mg/kg; in assay [3] it was 5 mg/kg. In assay [3], the inhibition in vivo at 10 mg/kg was about 60%.
As to `COc1ccccc1-c1n[nH]c(-c2ccccc2C)n1` [Example 4, 3-(o-Methoxyphenyl)-5-(o-tolyl)-1H-1,2,4-triazole], in assay [2], the responders at 20 mg/kg was at least 60%. Moreover, in assay [1] (setting [4]), the ED50 amounted to 0.5 mg/kg. The inhibition in vivo at 10 mg/kg in assay [3] was about 60%.
`CCOc1cccc(-c2n[nH]c(-c3ccccc3C)n2)c1` [Example 9, 3-(m-Ethoxyphenyl)-5-(o-tolyl)-1H-1,2,4-triazole]: the median effective dose (ED50) in assay [1] (setting [4]) is 0.07 mg/kg.
Still for that read-out and setting: to `C=CCOc1cccc(-c2n[nH]c(-c3ccccc3C)n2)c1` [Example 10, 3-(m-Allyloxyphenyl)-5-(o-tolyl)-1H-1,2,4-triazole] belongs 0.25 mg/kg; to `C=CCOc1cccc(-c2n[nH]c(-c3ccccc3CC)n2)c1` [Example 13, 3-(m-Allyloxyphenyl)-5-(o-ethylphenyl)-1H-1,2,4-triazole], 0.1 mg/kg.
In the case of `CCc1ccccc1-c1nc(-c2cccc(F)c2)n[nH]1` [Example 18, 5-(o-Ethylphenyl)-3-(m-fluorophenyl)-1H-1,2,4-triazole], the responders at 20 mg/kg in assay [2] is at least 60%. Moreover, the ED50 in assay [1] (setting [4]) was 0.4 mg/kg. Besides, the inhibition in vivo at 10 mg/kg in assay [3] is about 60%.
Turning to `CCc1ccccc1-c1nc(-c2ccc3c(c2)OCO3)n[nH]1` [Example 22, 5-(o-Ethylphenyl)-3-(3,4-methylenedioxyphenyl)-1H-1,2,4-triazole], the responders at 20 mg/kg in assay [2] was at least 60%. In addition, the median effective dose (ED50) in assay [1] (setting [4]) came to 0.03 mg/kg. Also, in assay [3], the inhibition in vivo at 10 mg/kg is about 60% and the 50% effect level (ED50) was put at a dose of 3 mg/kg.
In the case of `Cc1ccc(-c2nc(-c3ccccc3)n[nH]2)c(C)c1` [Example 25, 5-(2,4-Dimethylphenyl)-3-phenyl-1H-1,2,4-triazole], the responders at 20 mg/kg in assay [2] was at least 60%. In addition, the ED50 in assay [1] (setting [4]) stood at 0.2 mg/kg. In addition, the inhibition in vivo at 10 mg/kg in assay [3] was about 60%.
As for `COc1cccc(-c2n[nH]c(-c3ccc(C)cc3C)n2)c1` [Example 26, 5-(2,4-Dimethylphenyl)-3-(m-methoxyphenyl)-1H-1,2,4-triazole], the responders at 20 mg/kg in assay [2] was at least 60%. Moreover, the ED50 in assay [1] (setting [4]) is 0.04 mg/kg. The inhibition in vivo at 10 mg/kg in assay [3] is about 60%.
As to `Cc1cc(Cl)ccc1-c1nc(-c2ccccc2)n[nH]1` [Example 29, 5-(4-Chloro-2-methylphenyl)-3-phenyl-1H-1,2,4-triazole], the responders at 20 mg/kg in assay [2] is at least 60%. Also, the ED50 in assay [1] (setting [4]) was 0.14 mg/kg. Besides, the inhibition in vivo at 10 mg/kg in assay [3] is about 60%.
As to `COc1cccc(-c2n[nH]c(-c3ccc(Cl)cc3C)n2)c1` [Example 30, 5-(4-Chloro-2-methylphenyl)-3-(m-methoxyphenyl)-1H-1,2,4-triazole], the responders at 20 mg/kg in assay [2] was at least 60%. Also, the values for the ED50 in assay [1] (setting [4]) and in assay [3] were 0.04 mg/kg and 5 mg/kg, respectively. In assay [3], the inhibition in vivo at 10 mg/kg is about 60%.
On to `COc1cccc(-c2n[nH]c(-c3cc(Cl)ccc3C)n2)c1` [Example 32, 5-(5-Chloro-2-methylphenyl)-3-(m-methoxyphenyl)-1H-1,2,4-triazole], for which the responders at 20 mg/kg in assay [2] is at least 60%. The ED50 in assay [1] (setting [4]) came to 0.35 mg/kg. Also, in assay [3], the inhibition in vivo at 10 mg/kg is about 60%.
Take `COc1cccc(-c2n[nH]c(-c3ccc(OC)cc3C)n2)c1` [Example 34, 5-(4-Methoxy-2-methylphenyl)-3-(m-methoxyphenyl)-1H-1,2,4-triazole]: in assay [1] (setting [4]), the ED50 was 0.2 mg/kg.
As for `CCOc1cccc(-c2n[nH]c(-c3ccccc3CC)n2)c1` [Example 35, 3-(m-Ethoxyphenyl)-5-(o-ethylphenyl)-1H-1,2,4-triazole], the ED50 came out at 0.04 mg/kg in assay [1] (setting [4]) and 3 mg/kg in assay [3].
For `CCc1ccccc1-c1nc(-c2ccc(OC)cc2)n[nH]1` [Example 36, 5-(o-Ethylphenyl)-3-(p-methoxyphenyl)-1H-1,2,4-triazole], in that order: 0.15 mg/kg and 5 mg/kg.
As for `CCc1ccccc1-c1nc(-c2ccc(OC)c(OC)c2)n[nH]1` [Example 37, 5-(o-Ethylphenyl)-3-(3,4-dimethoxyphenyl)-1H-1,2,4-triazole], the ED50 in assay [1] (setting [4]) was found to be 0.05 mg/kg.
